The source of these data is patent publication US5871949A, “Method of quantitative assay for 1,5-anhydroglucitol and reagent for quantitative assay” (Daiichi Pure Chemicals Co., Ltd., priority 1996, dated 1999).

Holding throughout (assay type): biochemical, Agrobacterium tumefaciens NT 1130
Test [1] relates to 1,5-AG dehydrogenase. Description: Electron acceptor utilisation by 1,5-AG dehydrogenase (relative activity). To be noted: 100 mM potassium phosphate buffer pH 8.0. As to the method: In 100 mM of the potassium phosphate buffer (pH 8.0), various electron acceptors were made present together with the present enzyme, where the activities on the respective electron acceptors were indicated as relative activities, which were as shown in Table 3.

In test [2] the test system is 1,5-AG dehydrogenase. Kind of test: Substrate specificity of 1,5-AG dehydrogenase (relative activity on various sugars). The following applies: substrate final concentration 5 mM; for Relative activity (substrate specificity): 1,5-AG = 100, nitrotetrazolium blue, pH 8.0, 37° C. How it is done:
The activity of the 1,5-AG dehydrogenase is measured in the following way. That is, 3.0 ml in total of an enzyme-containing solution comprised of 1.5 ml of 0.2M potassium phosphate buffer (pH 8.0), 0.3 ml of 0.25% by weight nitrotetrazolium blue, 0.3 ml of 2% by weight nonionic surface-active agent, 0.3 ml of an aqueous 50 mM 1,5-AG solution, 0.45 ml of water and 0.15 ml of an enzyme solution is reacted at 37° C., and a change in absorbance (ΔmOD/min) at 540 nm is measured. The molecular extinction coefficient (or molar absorption coefficient) of a formazan dye formed under such conditions is given as 16.7×10^3 and the quantity of the enzyme capable of forming 1 μmol of formazan in one minute is regarded as one unit, where the activity of the 1,5-AG dehydrogenase is determined according to the following expression; [formula] (1) Activity:
Relative activities (substrate specificity) of instances where the 1,5-AG was replaced with various sugar solutions (all having a final concentration of 5 mM) in the above method of measuring the enzymatic activity are shown in Table 2.

Test [3] concerns 1,5-AG dehydrogenase. Kind of test: Km value by Lineweaver-Burk plot. The following applies: read-out: Km value with respect to 1,5-AG. How it is done: The Km value of the present enzyme with respect to 1,5-AG was determined by the Lineweaver-Burk plot to reveal that it was about 0.5 mM.

Take `O=C1C(Cl)=CC(=Nc2ccc(O)cc2)C=C1Cl` [2,6-Dichlorophenolindophenol]: the “Relative activity (electron acceptor)” value in the test with 1,5-AG dehydrogenase [1] (acceptor 0.1 mM) was determined as 100%. On to `NC(=O)c1ccc[n+]([C@@H]2O[C@H](COP(=O)([O-])OP(=O)(O)OC[C@H]3O[C@@H](n4cnc5c(N)ncnc54)[C@H](O)[C@@H]3O)[C@@H](O)[C@H]2O)c1` [NAD, nicotinamide adenine dinucleotide], for which, in the test with 1,5-AG dehydrogenase [1] (acceptor 1.0 mM), the “Relative activity (electron acceptor)” value is recorded as 0%. On to `O=C(CO)[C@@H](O)[C@H](O)[C@H](O)CO` [D-fructose], for which, in the test on 1,5-AG dehydrogenase [2], the “Relative activity (substrate specificity)” value was found to be 2. As for `NC(=O)c1ccc[n+]([C@@H]2O[C@H](COP(=O)([O-])OP(=O)(O)OC[C@H]3O[C@@H](n4cnc5c(N)ncnc54)[C@H](OP(=O)(O)O)[C@@H]3O)[C@@H](O)[C@H]2O)c1` [NADP], the “Relative activity (electron acceptor)” value with 1,5-AG dehydrogenase [1] (acceptor 1.0 mM) was found to be 0%. Take `O[C@H]1[C@H](O)[C@@H](O)[C@H](O)[C@@H](O)[C@H]1O` [Myoinocitol]: the “Relative activity (substrate specificity)” value with 1,5-AG dehydrogenase [2] worked out at 0.

Turning to `O=C[C@H](O)[C@@H](O)[C@H](O)[C@H](O)CO` [D-glucose], in the test on 1,5-AG dehydrogenase [2], the “Action of the enzyme on the substrate (in words)” value (“Action of the enzyme” for short) was “slightly acted” and the “Relative activity (substrate specificity)” value was found to be 11. Consider `O=C[C@H](O)[C@@H](O)[C@@H](O)[C@H](O)CO` [D-galactose], for which the “Relative activity (substrate specificity)” value with 1,5-AG dehydrogenase [2] was found to be 0. In the case of `COc1cc(-c2ccc(-[n+]3nc(-c4ccccc4)nn3-c3ccc([N+](=O)[O-])cc3)c(OC)c2)ccc1-[n+]1nc(-c2ccccc2)nn1-c1ccc([N+](=O)[O-])cc1` [Nitrotetrazolium blue], the “Relative activity (electron acceptor)” value in the test with 1,5-AG dehydrogenase [1] (acceptor 1.0 mM) worked out at 53%. For `OC[C@H]1OC[C@H](O)[C@@H](O)[C@@H]1O` [1,5-AG, 1,5-anhydroglucitol], the Km (commonly the substrate concentration at which the rate is half of its maximum) in the test on 1,5-AG dehydrogenase [3] was approximately 500 µM. In the test on 1,5-AG dehydrogenase [2], the “Action of the enzyme” value is “strongly acted” and the “Relative activity (substrate specificity)” value came out at 100.

On to `OC[C@@H](O)[C@@H](O)[C@H](O)[C@@H](O)CO` [Glucitol], for which the “Relative activity (substrate specificity)” value in the test on 1,5-AG dehydrogenase [2] stood at 0. On to `O=O` [Oxygen], for which the “Relative activity (electron acceptor)” value in the test on 1,5-AG dehydrogenase [1] (dissolved oxygen) amounted to 0%.

Regarding `OC[C@H]1O[C@H](O[C@H]2[C@H](O)[C@@H](O)C(O)O[C@@H]2CO)[C@H](O)[C@@H](O)[C@@H]1O` (mixture of isomers) [Maltose], the “Relative activity (substrate specificity)” value in the test with 1,5-AG dehydrogenase [2] worked out at 0. On to `O=C(CO)[C@@H](O)[C@H](O)[C@@H](O)CO` [L-sorbose], for which, in the test with 1,5-AG dehydrogenase [2], the “Action of the enzyme” value is “weakly acted” and the “Relative activity (substrate specificity)” value amounted to 25.
